The text below walks through data of patent publication US4423063A, “2,4-Dioxo-4-substituted-1-butaoic acid derivatives useful in treating urinary track calcium oxalate lithiasis” (Merck & Co., Inc., priority 1982, dated 1983).

The assay deals with T1, pig liver glycolate oxidase (Sus scrofa, UniProt I3LVF1).
T1 construct: The enzyme was pig liver glycolate oxidase; from tissue; host or cells: pig liver
T1 sequence (I3LVF1 1-370): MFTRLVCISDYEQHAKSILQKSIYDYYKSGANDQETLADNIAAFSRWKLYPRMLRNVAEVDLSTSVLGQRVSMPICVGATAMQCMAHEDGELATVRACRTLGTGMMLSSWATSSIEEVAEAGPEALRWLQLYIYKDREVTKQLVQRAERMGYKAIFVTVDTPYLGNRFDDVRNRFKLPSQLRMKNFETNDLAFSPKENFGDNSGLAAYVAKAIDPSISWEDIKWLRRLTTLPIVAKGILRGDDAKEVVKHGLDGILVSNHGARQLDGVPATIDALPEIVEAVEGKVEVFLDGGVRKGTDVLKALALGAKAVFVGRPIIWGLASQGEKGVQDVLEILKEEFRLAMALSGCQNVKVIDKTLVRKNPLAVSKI
Kind of assay: Glycolate oxidase enzyme inhibition. The following applies: 25° C., 0.10 M phosphate buffer pH 7.0, 3 mM EDTA, 2×10^-4 M sodium glycolate. The format is biochemical. As to the method:
The usefulness of the compounds of the present invention in treating urinary tract, especially renal, calcium oxalate lithiasis, is shown by the ability of those compounds to inhibit the glycolate oxidase enzyme. […] The activity of the enzyme, in turn, was measured by following the rate of reduction of sodium 2,6-dichlorophenol-indophenol by sodium glycolate in the presence of the enzyme. The enzyme was pig liver glycolate oxidase. The reaction was followed spectrophotometrically at 600 nm. The assay was conducted at 25° C. in a 0.10 M phosphate buffer, pH 7.0, containing 3 mM EDTA. Initial substrate concentrations were 5×10^-5 M of sodium 2,6-dichlorophenol-indophenol and 2×10^-4 M of sodium glycolate. Reactions were initiated by the addition of enzyme. Initial rates during the period from 1 to 3 min. after the addition of enzyme were recorded on a Beckman Acta M-VI spectrophotometer. One control was run simultaneously with three test reactions and all initial rates were adjusted to a common control rate. For further details of this procedure, see Randall et al., J. Med. Chem., 22, 6, 612 (1979).

In the case of `O=C(O)C(=O)CC(=O)c1ccc(-c2ccc(S)cc2)cc1` [4-[(4'-Mercapto-1,1'-biphenyl)-4-yl]-2,4-dioxo-1-butanoic acid], half-maximal inhibition (IC50) required 2100 nM.
On to `CSc1ccc(-c2ccc(C(=O)CC(=O)C(=O)O)cc2)cc1` [4-[(4'-Methylthio-1,1'-biphenyl)-4-yl]-2,4-dioxo-1-butanoic acid], for which, for the setting “unit inferred”, 150 nM corresponded to half-maximal inhibition (IC50).
As for `O=C(O)C(=O)CC(=O)c1ccc(-c2ccc(SCc3ccccc3)cc2)cc1` [4-[[4'-[(Phenylmethyl)thio]-1,1'-biphenyl]-4-yl]-2,4-dioxo-1-butanoic acid], the concentration for half-maximal inhibition (IC50) (usually the concentration that gives 50% inhibition) was determined as 420 nM.
In turn, `O=C(O)C(=O)CC(=O)c1ccc(-c2ccc(SCCc3ccncc3)cc2)cc1` [4-[[4'-[2-(4-Pyridinylethyl)thio]-1,1'-biphenyl]-4-yl]-2,4-dioxo-1-butanoic acid] yielded an IC50 of 90 nM.
As for `O=C(O)C(=O)CC(=O)c1ccc(-c2ccc(SCC3(O)COc4ccccc4OC3)cc2)cc1` [4-[[4'-[(3,4-dihydro-3-hydroxy-2H-1,5-benzodioxepin-3-yl)methylthio]-1,1'-biphenyl]-4-yl]-2,4-dioxo-1-butanoic acid], the IC50 was 62 nM.
